The nature of data set [1]: Stability of the analytes in rat plasma QC samples (short-term, autosampler, freeze-thaw, long-term). The settings on record: n = 6.
Data set [2] is described as follows: Pharmacokinetics study in rats after oral administration of YDXNT (UPLC-QqQ-MS of plasma).
Protocol: (§1) Six milliliters of 75% methanol was added to two milliliters of prepared plasma and then vortexed for 60 s. The mixture was centrifuged at 4000 rpm for 10 min at 4 °C. The supernatant was transferred to another EP tube and dried using a pressure blowing concentrator. The residue was redissolved with 200 μL of 75% methanol, vortexed for 60 s, and then centrifuged at 13 000 rpm for 10 min. To an aliquot of 200 μL plasma, 120 μL of 0.2 mol L^−1 acetic acid–sodium acetate buffer solution (pH = 4.6), 100 μL of the IS baicalein and 80 μL of 980 U mL^−1 β-glucuronidase and sulfatase was added and then vortexed for 1 min. The mixture was hydrolyzed in a water bath at 37 °C for 30 min, and 600 μL acetone was added to stop the hydrolysis. The sample was cooled, followed by vortexing for 2 min and then centrifugation at 13 000 rpm for 10 min. The supernatant fluid was evaporated to dryness under a flow of nitrogen gas.
(§2) Chromatographic analysis was performed using an Agilent 1290 Series UPLC from Agilent Technologies (Palo Alto, CA, USA), equipped with a quaternary pump an online degasser, auto-sampler and column oven. Chromatographic separation was performed on the Agilent ZORBAX SB-Aq C18 column (100 mm × 2.1 mm, 1.8 μm, Agilent, USA). The analytical column temperature was maintained at 30 °C and eluted with a mobile phase comprising 0.1% formic acid in water (A) and acetonitrile (B) using the following gradient program: 25–90% B from 0 to 1 min, 90% B from 1 to 3.5 min, and 90–25% B from 3.5 to 5 min at a flow rate of 0.3 mL min^−1. The equilibration time was 5 min, and the injection volume of sample and reference constituents was 5 μL.
(§3) Mass spectrometry was performed on the Agilent 6490 triple-quadrupole mass spectrometer (Palo Alto, CA, USA) equipped with an atmospheric pressure chemical ionization (APCI) interface. The mass spectrometer was set in negative ionization mode, with the capillary voltage set at 3500 V. The other parameters in the source were set as follows: desolvation gas flow, 15 L min^−1; source temperature, 290 °C; N2 sheath gas temperature, 350 °C; nebulizer gas (N2) pressure, 50 psi; flow, 12 L min^−1. The mass spectrometer scanned in multiple reaction monitoring (MRM) mode.
(§4) Six male rats were used in the pharmacokinetics study. All the rats were orally administered 2.4 g kg^−1 YXCNT suspended in an aqueous solution of 0.5% carboxymethyl cellulose sodium (QCT: 4.118 mg; KMF: 5.067 mg; ISR: 0.965 mg; GA: 1.416 mg; GB: 0.680 mg; GC: 0.796 mg; BB: 0.326 mg; TSIIA: 0.624 mg; SAB: 3.84 mg). After dosing for 0 min, 5 min, 15 min, 20 min, 30 min, 45 min, 1 h, 1.5 h, 2 h, 3 h, 4 h, 6 h, 8 h, 12 h, and 24 h, blood samples (500 μL) were drawn from the retro-orbital plexus of each mouse and collected in heparinized tubes according to the specific schedule. All the collected blood samples were immediately centrifuged at 13 000 rpm for 10 min. The plasma layer was transferred to clean tubes and stored at −20 °C until analysis. The plasma concentrations of QCT, ISR, KMF, GA, GB, GC, BB, TSIIA, and SAB were expressed as the mean ± standard deviation (SD), and the mean concentration–time curve was plotted. Non-compartmental pharmacokinetic parameters were computed using DAS 2.1.1 software.
A short description of data set [3]: in vivo. To be noted: male, Sprague-Dawley, rat, po.
Protocol: as §1, §2, §3, §4
Setting [4] is: rat plasma, oral YDXNT 4.8 g kg^−1 d^−1 (2.4 g kg^−1 in source), n = 6, mean ± SD.
[5] abbreviates: rat plasma, oral YDXNT 4.8 g kg^−1 d^−1 (2.4 g kg^−1 in source), n = 6, non-compartmental.
Setting [6] is: 1 ng mL^−1, -20°C for four weeks.
Setting [7] is: 1 ng mL^−1, room temperature for 6 h before sample preparation.
Where [8] appears, read: 1 ng mL^−1, room temperature for 12 h in the autosampler after sample preparation.
Where [9] appears, read: 1 ng mL^−1, three freeze-thaw cycles -20°C to ambient temperature.
The mark [10] stands for this setting: 10 ng mL^−1, -20°C for four weeks.
[11] abbreviates: 10 ng mL^−1, room temperature for 6 h before sample preparation.
Setting [12] is: 10 ng mL^−1, room temperature for 12 h in the autosampler after sample preparation.
[13] abbreviates: 10 ng mL^−1, three freeze-thaw cycles -20°C to ambient temperature.
[14] abbreviates: 100 ng mL^−1, -20°C for four weeks.
[15] abbreviates: 100 ng mL^−1, room temperature for 6 h before sample preparation.
Where [16] appears, read: 100 ng mL^−1, room temperature for 12 h in the autosampler after sample preparation.
Setting [17] is: 100 ng mL^−1, three freeze-thaw cycles -20°C to ambient temperature.
Where [18] appears, read: male, Sprague-Dawley, rat, plasma, po, 4.8 g kg^−1 d^−1.

Data on three compounds can be found in paper PMC9080097, “Identification of absorbed constituents and evaluation of the pharmacokinetics of main compounds after oral administration of yindanxinnaotong by UPLC-Q-TOF-MS and UPLC-QqQ-MS” (RSC Advances, 2018).

Turning to salvianolic acid B [SAB], the “Long-term stability Accuracy” value in data set [1] (5 ng mL^−1, -20°C for four weeks) is listed as 102.76 ± 5.39%; in data set [1] (50 ng mL^−1, -20°C for four weeks), 95.72 ± 6.59%; in data set [1] (500 ng mL^−1, -20°C for four weeks) it was 97.38 ± 4.39%. Moreover, the “Short-term stability Accuracy” value in data set [1] (5 ng mL^−1, room temperature for 6 h before sample preparation) came to 97.28 ± 2.19%; in data set [1] (50 ng mL^−1, room temperature for 6 h before sample preparation) it was 96.44 ± 6.33%; in data set [1] (500 ng mL^−1, room temperature for 6 h before sample preparation), 95.76 ± 8.18%. Further, the “Autosampler stability Accuracy” value in data set [1] (5 ng mL^−1, room temperature for 12 h in the autosampler after sample preparation) turned out to be 96.38 ± 8.63%; in data set [1] (50 ng mL^−1, room temperature for 12 h in the autosampler after sample preparation), 96.41 ± 5.79%; in data set [1] (500 ng mL^−1, room temperature for 12 h in the autosampler after sample preparation) it was 93.17 ± 7.35%. The “Freeze–thaw strability (three cycles) Accuracy” value (from here on “Freeze–thaw strability”) in data set [1] (5 ng mL^−1, three freeze-thaw cycles -20°C to ambient temperature) is 99.24 ± 6.68%; in data set [1] (50 ng mL^−1, three freeze-thaw cycles -20°C to ambient temperature), 98.88 ± 3.59%; in data set [1] (500 ng mL^−1, three freeze-thaw cycles -20°C to ambient temperature) it was 95.47 ± 4.92%. In data set [2] (setting [4]), the C max amounted to 32.00 ± 15.43 ng/mL. The T max in data set [2] (setting [4]) is reported as 0.75 ± 0.18 h. The “AUC0–INF” value in data set [2] (setting [5]) came to 135.72 ± 64.24. Besides, the MRT in data set [2] (setting [5]) is listed as 9.46 ± 2.37 h. Further, the “T 1/2” value in data set [2] (setting [5]) turned out to be 12.17 ± 3.33 h. Besides, in data set [2] (rat plasma, oral YDXNT 4.8 g kg^−1 d^−1 (2.4 g kg^−1 in source), n = 6, sampling to 24 h, non-compartmental), the “AUC0–t” value turned out to be 118.17 ± 58.46.

Take `COc1cc(-c2oc3cc(O)cc(O)c3c(=O)c2O)ccc1O` [ISR, isorhamnetin]: the “Long-term stability Accuracy” value was 98.35 ± 6.27% in data set [1] (setting [6]), 96.44 ± 6.33% in data set [1] (setting [10]) and 95.76 ± 8.18% in data set [1] (setting [14]). Moreover, the “Short-term stability Accuracy” value came to 99.24 ± 6.68% in data set [1] (setting [7]), 96.28 ± 5.89% in data set [1] (setting [11]) and 102.18 ± 4.95% in data set [1] (setting [15]). For the same compound, the entries for the “Autosampler stability Accuracy” value in data set [1] (setting [8]), in data set [1] (setting [12]) and in data set [1] (setting [16]) were 98.06 ± 8.29%, 97.72 ± 3.83% and 98.34 ± 7.61%, respectively. The “Freeze–thaw strability” value in data set [1] (setting [9]) came out at 103.15 ± 5.43%; in data set [1] (setting [13]) it was 94.52 ± 3.68%; in data set [1] (setting [17]) it was 99.63 ± 3.38%. Moreover, the AUC(0-inf) in data set [3] came out at 384 ± 55.1 ng·h/mL. Also, in data set [3], the AUC(0-t) amounted to 319 ± 49.3 ng·h/mL. In data set [3], this compound gave a Cmax of 27.9 ± 8.38 ng/mL. The MRT in data set [3] was found to be 13.9 ± 3.71 h. For the same compound, the Tmax in data set [3] is 0.33 ± 0.14 h. This compound showed a half-life in data set [3] of 8.19 ± 2.42 h.

On to `CC(C)(C)[C@]1(O)CC2OC(=O)CC23C(=O)OC2OC(=O)[C@H](O)C231` (stereo partly drawn) [BB, bilobalide], for which the figures for the “Long-term stability Accuracy” value in data set [1] (setting [6]), in data set [1] (setting [10]) and in data set [1] (setting [14]) were 99.15 ± 5.73%, 96.38 ± 8.63% and 95.54 ± 7.76%, respectively. The “Short-term stability Accuracy” value in data set [1] (setting [7]) is listed as 98.10 ± 7.83%; in data set [1] (setting [11]) it was 99.78 ± 5.25%; in data set [1] (setting [15]), 94.05 ± 2.61%. Further, the “Autosampler stability Accuracy” value was 103.47 ± 6.75% in data set [1] (setting [8]), 95.29 ± 2.77% in data set [1] (setting [12]) and 97.44 ± 3.13% in data set [1] (setting [16]). For the same compound, the entries for the “Freeze–thaw strability” value in data set [1] (setting [9]), in data set [1] (setting [13]) and in data set [1] (setting [17]) were 99.85 ± 6.27%, 98.88 ± 3.59% and 95.47 ± 4.92%, respectively. This compound showed an AUC(0-inf) in data set [2] (setting [18]) of 384 ± 51.5 ng·h/mL. This compound also yielded an AUC(0-t) in data set [2] (setting [18]) of 366 ± 48.4 ng·h/mL. In data set [2] (setting [18]), this compound yielded a Cmax of 48.7 ± 12.3 ng/mL. For the same compound, in data set [2] (setting [18]), the MRT was determined as 9.62 ± 3.18 h. In data set [2] (setting [18]), the Tmax worked out at 0.75 ± 0.5 h. Also, the half-life in data set [2] (setting [18]) was 5.55 ± 2.67 h.
